We go through twelve compounds from paper PMC8480782, “Efficient Dimerization Disruption of Leishmania infantum Trypanothione Reductase by Triazole-phenyl-thiazoles” (Journal of Medicinal Chemistry, 2021).

Values joined by “and” are separate entries in the source; they are usually repeats but may differ in a detail not shown here. Identical values can stand only once. Like-named read-outs stand apart in the source and are kept apart here. Where only a bound is given, the exact number is not on record here.

The test system of assay [1] is HepG2 cells. In words: Cellular toxicity, crystal violet assay. It counts as cell-based. The note with it: Homo sapiens, read-out: EC50 HepG2. In outline:
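HepG2 cells in DMEM with 10% FCS were exposed to compounds at 10^5 cells/mL for 24 h at 37 °C and 5% CO2. Remaining cells were stained with crystal violet, solubilized in 1% SDS and read at 570 nm. EC50 was obtained by nonlinear regression from triplicates in at least three independent experiments.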

In assay [2] the test system is L. infantum axenic amastigotes. Nature of the assay: Leishmanicidal activity on axenic amastigotes (PI exclusion, flow cytometry). It is filed as cell-based, Leishmania infantum. The note with it: for SIa (ratio of EC50 against human cells to EC50 against amastigotes): HepG2 / axenic amastigotes; for EC50: Leishmania infantum, read-out: EC50 amastigotes. In outline:
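Leishmania infantum axenic amastigotes (MCAN/ES/89/IPZ229/1/89) were cultured at 37 °C in M199 medium, pH 5.4, with 10% heat-inactivated FCS, organic acids, MES, hemin and gentamicine. After compound exposure, parasites were gated by FSC/SSC and live versus dead cells were distinguished by propidium iodide exclusion using flow cytometry. EC50 values came from nonlinear regression in GraFit 6, with triplicates in at least three independent experiments.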
Background: In flow cytometry, cells or beads pass a laser one at a time.

The target of assay [3] is T1, LiTryR (Leishmania infantum, UniProt A4HSF7).
T1 construct: HIS (N); made in house; host or cells: E. coli BL21 (DE3) Rossetta
Nature of the assay: biochemical. Conditions: for IC50: LiTryR, 1 μM TS2, maximum assayed 75 μM, read-out: IC50^act, TryR oxidoreductase activity. It counts as biochemical. In outline:
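Recombinant HIS- or HIS-FLAG-tagged LiTryR (7 nM, E. coli-expressed) in DTNB-coupled assay at 26 °C, pH 7.5 HEPES with NADP+ 30 μM, DTNB 25 μM, NADPH 150 μM, TS2 1 μM, 1.75% DMSO. Reaction started with NADPH/TS2; TNB formation followed at 412 nm, data fitted by nonlinear regression.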

Setting [4] is: HepG2, 24 h, crystal violet method.
[5] abbreviates: axenic amastigotes, 24 h at 37 °C.

T1 sequence (A4HSF7 1-491): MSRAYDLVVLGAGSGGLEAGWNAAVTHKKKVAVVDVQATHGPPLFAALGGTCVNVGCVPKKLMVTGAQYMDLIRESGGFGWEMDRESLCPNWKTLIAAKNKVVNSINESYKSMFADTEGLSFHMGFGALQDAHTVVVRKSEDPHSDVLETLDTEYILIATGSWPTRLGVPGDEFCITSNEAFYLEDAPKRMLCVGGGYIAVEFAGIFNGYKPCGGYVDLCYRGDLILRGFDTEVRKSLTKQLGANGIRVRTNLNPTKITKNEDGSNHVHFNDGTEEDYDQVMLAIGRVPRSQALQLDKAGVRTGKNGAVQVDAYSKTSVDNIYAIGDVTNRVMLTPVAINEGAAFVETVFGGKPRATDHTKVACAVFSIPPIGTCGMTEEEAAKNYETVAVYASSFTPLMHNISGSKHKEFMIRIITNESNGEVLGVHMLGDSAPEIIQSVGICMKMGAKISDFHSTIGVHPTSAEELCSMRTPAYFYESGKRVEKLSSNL

A word on the EC50: it is the concentration giving half of the maximal effect. By IC50 is commonly meant the concentration at which inhibition is half-maximal. In the case of `NCCCCc1cn(-c2ccc(-c3nc(CCc4ccc5ccccc5c4)cs3)c(OCCN3CCNC3=O)c2)nn1.O=C(O)C(F)(F)F` [12b, 1-(2-(5-(4-(4-Ammoniumbutyl)-1H-1,2,3-triazol-1-yl)-2-(4-(2-(naphthalen-2-yl)ethyl)thiazol-2-yl)phenoxy)ethyl)imidazolidin-2-one 2,2,2-Trifluoroacetate], the EC50 in assay [1] (setting [4]) stood at 33.3 ± 2.7 µM; in assay [2] (setting [5]), 15.3 ± 1.7 µM. Besides, the “SIa (ratio of EC50 against human cells to EC50 against amastigotes)” value in assay [2] is recorded as 2.2. The IC50 in assay [3] turned out to be 5.9 ± 1.1 µM.
For `NCCCCc1cn(-c2ccc(-c3nc(CCc4ccc(-c5ccccc5)cc4)cs3)c(OCCN3CCNC3=O)c2)nn1.O=C(O)C(F)(F)F` [12c, 1-(2-(2-(4-(2-([1,1′-Biphenyl]-4-yl)ethyl)thiazol-2-yl)-5-(4-(4-ammoniumbutyl)-1H-1,2,3-triazol-1-yl)phenoxy)ethyl)imidazolidin-2-one 2,2,2-Trifluoroacetate], in that order: 43.1 ± 2.6 µM, 11.6 ± 0.8 µM, 3.7 and 10.9 ± 1.8 µM.
With `NCCCc1cn(-c2ccc(-c3nc(CCc4ccc(-c5ccccc5)cc4)cs3)c(OCCN3CCNC3=O)c2)nn1.O=C(O)C(F)(F)F` [12i], the values for the EC50 in assay [1] (setting [4]) and in assay [2] (setting [5]) were 60.4 ± 3 µM and 5.2 ± 0.3 µM, respectively. Also, the “SIa (ratio of EC50 against human cells to EC50 against amastigotes)” value in assay [2] is 11.6. For the same compound, in assay [3], the half-inhibitory concentration (IC50) was 19.7 ± 3.8 µM.
Turning to `NCCCCc1cn(-c2ccc(-c3nc(-c4ccccc4)cs3)c(OCCN3CCNC3=O)c2)nn1.O=C(O)C(F)(F)F` [12n], the EC50 in assay [1] (setting [4]) is 16.4 ± 2.3 µM; in assay [2] (setting [5]) it was 11.5 ± 0.3 µM. Moreover, the IC50 in assay [3] came out at 11.2 ± 0.2 µM.
Regarding `NCCCCc1cn(-c2ccc(-c3nc(CCc4ccc5c(c4)CCCN5)cs3)c(OCCN3CCNC3=O)c2)nn1.O=C(O)C(F)(F)F.O=C(O)C(F)(F)F` [12q], the EC50 is 43.3 ± 1 µM in assay [1] (setting [4]) and 27 ± 2.8 µM in assay [2] (setting [5]). Also, the “SIa (ratio of EC50 against human cells to EC50 against amastigotes)” value in assay [2] is on record as “ND/1.6”. The IC50 in assay [3] was determined as 6.9 ± 2.1 µM.
Regarding `NCCCCc1cn(-c2ccc(-c3nc(CCc4ccc5c(c4)CCO5)cs3)c(OCCN3CCNC3=O)c2)nn1.O=C(O)C(F)(F)F` [12r], the EC50 came to 29.4 ± 0.7 µM in assay [1] (setting [4]) and 22.3 ± 0.6 µM in assay [2] (setting [5]). Also, the “SIa (ratio of EC50 against human cells to EC50 against amastigotes)” value in assay [2] amounted to 1.3. In assay [3], the IC50 came to 11.9 ± 0.6 µM.
`NCCCCc1cn(-c2ccc(-c3nc(CCc4ccc5oc6ccccc6c5c4)cs3)c(OCCN3CCNC3=O)c2)nn1.O=C(O)C(F)(F)F` [12s]: the EC50 was greater than 75 µM in assay [1] (HepG2, 24 h) and 68.8 ± 3.2 µM in assay [2] (24 h). The “SIa (ratio of EC50 against human cells to EC50 against amastigotes)” value in assay [2] was “ND/>1.1”. In addition, the IC50 in assay [3] came out at 6.6 ± 1.9 µM.
For `NCCCCc1cn(-c2ccc(-c3nc(-c4ccccc4)c(-c4ccccc4)s3)c(OCCN3CCNC3=O)c2)nn1.O=C(O)C(F)(F)F` [19a, 1-(2-(5-(4-(4-Ammoniobutyl)-1H-1,2,3-triazol-1-yl)-2-(4,5-diphenylthiazol-2-yl)phenoxy)ethyl)imidazolidin-2-one 2,2,2-Trifluoroacetate], the EC50 in assay [1] (setting [4]) is 26.5 ± 4.1 µM; in assay [2] (setting [5]), 15.6 ± 3 µM. In addition, in assay [2], the “SIa (ratio of EC50 against human cells to EC50 against amastigotes)” value is on record as 1.7. For the same compound, the IC50 in assay [3] came to 4.3 ± 1 µM.
Regarding `NCCCCc1cn(-c2ccc(-c3nc(-c4ccc(Oc5ccccc5)cc4)c(-c4ccccc4)s3)c(OCCN3CCNC3=O)c2)nn1.O=C(O)C(F)(F)F` [19c, 1-(2-(5-(4-(4-Ammoniobutyl)-1H-1,2,3-triazol-1-yl)-2-(4-([4-phenyloxyphenyl]-1-yl)-5-phenylthiazol-2-yl)phenoxy)ethyl)imidazolidin-2-one 2,2,2-Trifluoroacetate], the results for the EC50 in assay [1] (setting [4]) and in assay [2] (setting [5]) were no less than 75 µM and 22.6 ± 5.7 µM, respectively. The “SIa (ratio of EC50 against human cells to EC50 against amastigotes)” value in assay [2] was “ND/≥3.3”. Further, the IC50 in assay [3] turned out to be 16.9 ± 2.7 µM.
On the same counts, the results for `NCCNCc1nccn1-c1ccc(-c2nc(CCc3ccc4ccccc4c3)cs2)c(OCCN2CCNC2=O)c1` [compound 2, reference compound] are 27.1 ± 2.4 µM, 12.8 ± 1.3 µM, 2.1/2.1 and 5.1 ± 0.4 µM.
Regarding `NCCNCc1nccn1-c1ccc(-c2nc(CCc3ccc(-c4ccccc4)cc3)cs2)c(OCCN2CCNC2=O)c1` [compound 3, reference compound], the EC50 amounted to 14.2 ± 0.9 µM in assay [1] (setting [4]) and 5.3 ± 0.2 µM in assay [2] (setting [5]). Further, in assay [2], the “SIa (ratio of EC50 against human cells to EC50 against amastigotes)” value is 2.7 and 2.7/2.7. The IC50 in assay [3] amounted to 8.6 ± 1.4 µM.
Regarding `NCCCCc1cn(-c2ccc(-c3nc(-c4cccc(-c5csc(-c6ccc(-n7cc(CCCCN)nn7)cc6OCCN6CCNC6=O)n5)c4)cs3)c(OCCN3CCNC3=O)c2)nn1.O=C(O)C(F)(F)F.O=C(O)C(F)(F)F` [compound 22, 1,1′-((((1,3-Phenylenebis(thiazole-4,2-diyl))bis(5-(4-(4-ammoniobutyl)-1H-1,2,3-triazol-1-yl)-2,1-phenylene))bis(oxy))bis(ethane-2,1-diyl))bis(imidazolidin-2-one)bis(2,2,2-trifluoroacetate)], the values for the EC50 in assay [1] (setting [4]) and in assay [2] (setting [5]) were 30.5 ± 4.1 µM and 4.9 ± 0.2 µM, respectively. Besides, the “SIa (ratio of EC50 against human cells to EC50 against amastigotes)” value in assay [2] amounted to 6.2. For the same compound, in assay [3], the IC50 was 0.4 ± 0.03 µM. Further, the “fold more potent than 12n, IC50^act” value in assay [3] (versus monomeric 12n) came out at 28 fold.
